The source made the active and inactive calls. Rule for the calls: active = viability on the fitted dose curve at most 10% of control; inactive = the rest.
Test system: NCI-H719 tumor spheroids, viability
Assay: Anticancer human tumor NCI-H719 cell line growth inhibition;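 for IC50: spheroids exposed to compounds for seven days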;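 for viability, T/C: spheroids exposed to compounds for seven days; percent viability relative to DMSO vehicle control as 100%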
Details: spheroids with HUVEC and MSC; for IC50: curve of first compound; for viability, T/C: stronger effect = lower value
How it was run: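 Single agents and combinations were tested on spheroids built from tumor cells plus HUVEC and hMSC, at half-log dilutions starting at or near clinical Cmax, else 10 microM; final DMSO 0.25% (v/v).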

## COc1ccc([C@@H](O)c2cc(-c3ncnc4cc(N5CCOCC5)ccc34)c(F)cc2Cl)nn1 + COc1cc2c(cc1O)CCNC21CSC2c3c(OC(C)=O)c(C)c4c(c3C(COC1=O)N1C(O)C3Cc5cc(C)c(OC)c(O)c5C(C21)N3C)OCO4
Second compound 30 pM
  IC50: 1110 nM
Second compound 94.9 pM
  IC50: < 31.6 nM
Second compound 0.0003 µM
  IC50: < 31.6 nM
Second compound 0.000949 µM
  IC50: < 31.6 nM
Second compound 0.003 µM
  IC50: < 31.6 nM
Second compound 30 pM, first compound 0.0316 µM
  viability, T/C: 81.5%
Second compound 30 pM, first compound 0.1 µM
  viability, T/C: 100%
Second compound 30 pM, first compound 0.316 µM
  viability, T/C: 75.2%
Second compound 30 pM, first compound 1 µM
  viability, T/C: 52.4%
Second compound 30 pM, first compound 3.16 µM
  viability, T/C: 22%
Second compound 30 pM, first compound 10 µM
  viability, T/C: 3.59%
Second compound 94.9 pM, first compound 0.0316 µM
  viability, T/C: 49.7%
Second compound 94.9 pM, first compound 0.1 µM
  viability, T/C: 25.2%
Second compound 94.9 pM, first compound 0.316 µM
  viability, T/C: 44%
Second compound 94.9 pM, first compound 1 µM
  viability, T/C: 27.7%
Second compound 94.9 pM, first compound 3.16 µM
  viability, T/C: 8.27%
Second compound 94.9 pM, first compound 10 µM
  viability, T/C: 3%
Second compound 0.0003 µM, first compound 0.0316 µM
  viability, T/C: 13.6%
Second compound 0.0003 µM, first compound 0.1 µM
  viability, T/C: 8.22%
Second compound 0.0003 µM, first compound 0.316 µM
  viability, T/C: 10.1%
Second compound 0.0003 µM, first compound 1 µM
  viability, T/C: 6.05%
Second compound 0.0003 µM, first compound 3.16 µM
  viability, T/C: 3.35%
Second compound 0.0003 µM, first compound 10 µM
  viability, T/C: 1.11%
Second compound 0.000949 µM, first compound 0.0316 µM
  viability, T/C: 8.53%
Second compound 0.000949 µM, first compound 0.1 µM
  viability, T/C: 8.3%
Second compound 0.000949 µM, first compound 0.316 µM
  viability, T/C: 7.46%
Second compound 0.000949 µM, first compound 1 µM
  viability, T/C: 4.41%
Second compound 0.000949 µM, first compound 3.16 µM
  viability, T/C: 1.46%
Second compound 0.000949 µM, first compound 10 µM
  viability, T/C: 0.7%
Second compound 0.003 µM, first compound 0.0316 µM
  viability, T/C: 0.57%
Second compound 0.003 µM, first compound 0.1 µM
  viability, T/C: 0.58%
Second compound 0.003 µM, first compound 0.316 µM
  viability, T/C: 0.46%
Second compound 0.003 µM, first compound 1 µM
  viability, T/C: 0.68%
Second compound 0.003 µM, first compound 3.16 µM
  viability, T/C: 0.54%
Second compound 0.003 µM, first compound 10 µM
  viability, T/C: 0.45%

## COc1cc(C)[nH]c(=O)c1CN1CCc2c(Cl)cc(C(OC)C3COC3)c(Cl)c2C1=O (stereo not given) + Cn1nnc2c(C(N)=O)ncn2c1=O
Second compound 1 µM
  IC50: > 10000 nM
Second compound 3.16 µM
  IC50: > 10000 nM
Second compound 10 µM
  IC50: > 10000 nM
Second compound 31.6 µM
  IC50: > 10000 nM
Second compound 100 µM
  IC50: > 10000 nM
Second compound 1 µM, first compound 0.0316 µM
  viability, T/C: 101%
Second compound 1 µM, first compound 0.1 µM
  viability, T/C: 101%
Second compound 1 µM, first compound 0.316 µM
  outcome: inactive
Second compound 1 µM, first compound 1 µM
  viability, T/C: 111%
Second compound 1 µM, first compound 3.16 µM
  viability, T/C: 108%
Second compound 1 µM, first compound 10 µM
  viability, T/C: 103%
Second compound 3.16 µM, first compound 0.0316 µM
  viability, T/C: 103%
Second compound 3.16 µM, first compound 0.1 µM
  viability, T/C: 108%
Second compound 3.16 µM, first compound 0.316 µM
  viability, T/C: 119%
Second compound 3.16 µM, first compound 1 µM
  viability, T/C: 117%
Second compound 3.16 µM, first compound 3.16 µM
  viability, T/C: 112%
Second compound 3.16 µM, first compound 10 µM
  viability, T/C: 110%
Second compound 10 µM, first compound 0.0316 µM
  viability, T/C: 110%
Second compound 10 µM, first compound 0.1 µM
  viability, T/C: 110%
Second compound 10 µM, first compound 0.316 µM
  viability, T/C: 122%
Second compound 10 µM, first compound 1 µM
  viability, T/C: 121%
Second compound 10 µM, first compound 3.16 µM
  viability, T/C: 125%
Second compound 10 µM, first compound 10 µM
  viability, T/C: 118%
Second compound 31.6 µM, first compound 0.0316 µM
  viability, T/C: 118%
Second compound 31.6 µM, first compound 0.1 µM
  viability, T/C: 111%
Second compound 31.6 µM, first compound 0.316 µM
  viability, T/C: 111%
Second compound 31.6 µM, first compound 1 µM
  viability, T/C: 125%
Second compound 31.6 µM, first compound 3.16 µM
  viability, T/C: 118%
Second compound 31.6 µM, first compound 10 µM
  viability, T/C: 119%
Second compound 100 µM, first compound 0.0316 µM
  viability, T/C: 109%
Second compound 100 µM, first compound 0.1 µM
  viability, T/C: 101%
Second compound 100 µM, first compound 0.316 µM
  viability, T/C: 99.7%
Second compound 100 µM, first compound 1 µM
  viability, T/C: 109%
Second compound 100 µM, first compound 3.16 µM
  viability, T/C: 115%
Second compound 100 µM, first compound 10 µM
  viability, T/C: 109%

Source: PubChem BioAssay AID1845212 (Molecular Pharmacology Branch, DTP, NCI, 2023)
